{"source": "paper PMC9745797", "about": "(2022)", "key": {"[1]": {"test_system": "5′-d(CGCATATATGCG)-3′ (DNA, duplex) CGCATATATGCG", "assay": "1H NMR titration and NOESY", "details": "50 mM phosphate pH 7.4, 9:1 H2O/D2O, 298 K (cooled to 274 K); 1 mM duplex; slow exchange"}, "[2]": {"test_system": "5′-d(CGCATATATGCG)-3′ (DNA, duplex) CGCATATATGCG", "assay": "native nESI-MS", "details": "K+ 100 μM (KCl), NH4+ 150 mM; 150 mM ammonium acetate, pH 7, 1% DMSO; 9 μM DNA, 100 μM compound"}}}
{"smiles": "Cn1cc(NC(=O)c2cc(NC(=O)c3ccc(/C=C/c4cnc5ccccc5c4)cc3)cn2C)cc1C(=O)NCCN1CCOCC1", "values": [{"measurement": "binding", "setting": "[1]", "result": "yes"}, {"measurement": "binding", "setting": "[2]", "result": "yes"}]}
